Data on six compounds can be found in US20240391965A1, “STAPLED ANTIMICROBIAL PEPTIDES (STAMPS) AND USES THEREOF” (Lytica Therapeutics, Inc., priority 2021, published 2024).

For series [1], the system named is Acinetobacter baumannii (A. baumannii). The series is classed as cell-based. The conditions noted are these: microbroth dilution, 20-24 hours at 37° C. An outline of the steps:
(§1)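 Bacteria from overnight cultures, regrown 3-4 h, were added at 5×10^5 CFU/ml final to peptide serial dilutions in MHB or MHB II. Plates were incubated 20-24 h at 37° C. The minimum peptide concentration without visible growth was taken as MIC, per a CLSI-adapted microdilution protocol.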
On the technique in general: In broth dilution the organism is exposed to a series of concentrations in liquid medium.

In series [2] the test system is Escherichia coli (E. coli). It counts as cell-based. The following applies: microbroth dilution, 20-24 hours at 37° C. An outline of the steps: as §1
The test system of series [3] is Klebsiella pneumoniae (K. pneumoniae). The series is classed as cell-based. The following applies: microbroth dilution, 20-24 hours at 37° C. Summed up:
as §1

For series [4], the system named is Pseudomonas aeruginosa (P. aeruginosa). It counts as cell-based. The following applies: microbroth dilution, 20-24 hours at 37° C. An outline of the steps:
as §1

Series [5] concerns Staphylococcus aureus (S. aureus). It counts as cell-based. The following applies: microbroth dilution, 20-24 hours at 37° C. Summed up:
as §1

Series [6] is described as follows: 90 minute cytotoxicity assay (LDH release), renal toxicity. The series is classed as cell-based. The following applies: 90 minutes of incubation, LDH release; read-out: Inhibitory Concentration at 50% Cytotoxicity (IC50) Human Renal Proximal Tubule Epithelial Cells (RPTEC). Summed up: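 Released lactate dehydrogenase, read as absorbance at 490 nm after 10 min with assay reagent, serves as read-out. Renal proximal tubule epithelial cells received peptide serial dilutions or vehicle for 90 min at 37° C after overnight plating.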
On the technique in general: LDH leaks from cells whose membrane has failed.

A short description of series [7]: 48 hours cytotoxicity assay (CellTiter-Glo), liver toxicity. The series is classed as cell-based, human. The following applies: 48 hours of incubation, CellTiter-Glo; read-out: Inhibitory Concentration at 50% Cytotoxicity (IC50) Human Liver Cells (HepG2). An outline of the steps: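 Viability from CellTiter-Glo luminescence after StAMP dilution series or vehicle acted on HepG2 cells for 48 h at 37 °C. Cells were grown in EMEM plus 10% FBS and given 4 h to attach before dosing.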

In brackets after ≈: the same amount, converted by molar mass. Starred links: 1 amine or outer side, 2 acyl side, 3 side chain; linkers in the order of their positions; H or OH if unused. Positions of bridges follow the written chain, without caps; N, C: chain ends. Residues, ends and D or L forms follow the SMILES beside them. Naphthalene(2,6-diCH2) = c1cc2cc(C[*:2])ccc2cc1C[*:1]; mXylylene = c1cc(C[*:1])cc(C[*:2])c1; pXylylene = c1cc(C[*:2])ccc1C[*:1]; X1 = C(=CC[*:2])C[*:1]

On to `CC[C@H](C)[C@H](NC(=O)CN)C(=O)N[C@@H](Cc1ccccc1)C(=O)N[C@@H](CO)C(=O)N[C@@H](CCCCN)C(=O)N[C@@H](CC(C)C)C(=O)N[C@@H](C)C(=O)NCC(=O)N[C@H]1CSCc2ccc(cc2)CSC[C@@H](C(=O)N[C@@H](CC(C)C)C(=O)N[C@@H](CC(C)C)C(=O)N[C@H](C(=O)N[C@@H](CO)C(=O)NCC(=O)N[C@@H](CC(C)C)C(=O)N[C@@H](CCCCN)C(=O)NCC(N)=O)[C@@H](C)CC)NC(=O)[C@H](CCCCN)NC(=O)[C@H]([C@@H](C)CC)NC(=O)[C@H](CCCCN)NC1=O` [compound 13] (H-GIFSKLAGCKIKCLLISGLKG-NH2; linker 9-13 via pXylylene), for which the “Minimum Inhibitory Concentration (MIC) A. baumannii” value in series [1] is 32 mg/L. The “Minimum Inhibitory Concentration (MIC) E. coli” value in series [2] turned out to be 32 mg/L. Also, in series [3], the “Minimum Inhibitory Concentration (MIC) K. pneumoniae” value came out at 64 mg/L. The “Minimum Inhibitory Concentration (MIC) P. aeruginosa” value in series [4] is 64 mg/L. Further, in series [5], the “Minimum Inhibitory Concentration (MIC) S. aureus” value is greater than 64 mg/L. The IC50 in series [6] and in series [7] was greater than 200 mg/L each time.
Consider `CC[C@H](C)[C@H](NC(=O)CN)C(=O)N[C@H]1CSCC=CCSC[C@@H](C(=O)NCC(=O)N[C@@H](CCCCN)C(=O)N[C@@H](CCCCN)C(=O)N[C@H](C(=O)N[C@@H](CCCCN)C(=O)N[C@@H](CC(N)=O)C(=O)N[C@@H](CC(C)C)C(=O)N[C@@H](CC(C)C)C(=O)N[C@H](C(=O)N[C@@H](CO)C(=O)NCC(=O)N[C@@H](CC(C)C)C(=O)N[C@@H](CCCCN)C(=O)NCC(N)=O)[C@@H](C)CC)[C@@H](C)CC)NC(=O)[C@H](CC(C)C)NC(=O)[C@H](CCCCN)NC(=O)[C@H](CO)NC1=O` [compound 1] (H-GICSKLCGKKIKNLLISGLKG-NH2; linker 3-7 via X1), for which the “Minimum Inhibitory Concentration (MIC) A. baumannii” value in series [1] turned out to be 8 mg/L. For the same compound, the “Minimum Inhibitory Concentration (MIC) E. coli” value in series [2] came to 8 mg/L. In series [3], the “Minimum Inhibitory Concentration (MIC) K. pneumoniae” value worked out at 64 mg/L. In series [4], the “Minimum Inhibitory Concentration (MIC) P. aeruginosa” value amounted to 32 mg/L. Also, in series [5], the “Minimum Inhibitory Concentration (MIC) S. aureus” value was greater than 64 mg/L. For the same compound, the IC50 in series [6] and in series [7] was greater than 200 mg/L throughout.
Consider `CC[C@H](C)[C@H](NC(=O)CN)C(=O)N[C@@H](Cc1ccccc1)C(=O)N[C@H]1CSCc2ccc3cc(ccc3c2)CSC[C@@H](C(=O)N[C@@H](CCCCN)C(=O)N[C@@H](CC(N)=O)C(=O)N[C@@H](CC(C)C)C(=O)N[C@@H](CC(C)C)C(=O)N[C@H](C(=O)N[C@@H](CO)C(=O)NCC(=O)N[C@@H](CC(C)C)C(=O)N[C@@H](CCCCN)C(=O)NCC(N)=O)[C@@H](C)CC)NC(=O)[C@H](CCCCN)NC(=O)[C@H](CCCCN)NC(=O)CNC(=O)[C@H](C)NC(=O)[C@H](CC(C)C)NC(=O)[C@H](CCCCN)NC1=O` [compound 58] (H-GIFCKLAGKKCKNLLISGLKG-NH2; linker 4-11 via Naphthalene(2,6-diCH2); N-terminus assumed), for which the “Minimum Inhibitory Concentration (MIC) A. baumannii” value in series [1] stood at 4 mg/L. Also, in series [2], the “Minimum Inhibitory Concentration (MIC) E. coli” value worked out at 16 mg/L. Further, in series [3], the “Minimum Inhibitory Concentration (MIC) K. pneumoniae” value was 32 mg/L. For the same compound, the “Minimum Inhibitory Concentration (MIC) P. aeruginosa” value in series [4] turned out to be 64 mg/L. Besides, the “Minimum Inhibitory Concentration (MIC) S. aureus” value in series [5] is greater than 64 mg/L. In addition, the IC50 worked out at 131 mg/L (≈ 55.9 µM) in series [6] and 51 mg/L (≈ 21.8 µM) in series [7].
For the compound `CC[C@H](C)[C@H](NC(=O)CN)C(=O)N[C@@H](Cc1ccccc1)C(=O)N[C@@H](CO)C(=O)N[C@@H](CCCCN)C(=O)N[C@@H](CC(C)C)C(=O)N[C@@H](C)C(=O)NCC(=O)N[C@@H](CCCCN)C(=O)N[C@@H](CCCCN)C(=O)N[C@H](C(=O)N[C@H]1CSCC=CCSC[C@@H](C(=O)N[C@@H](CO)C(=O)NCC(=O)N[C@@H](CC(C)C)C(=O)N[C@@H](CCCCN)C(=O)NCC(N)=O)NC(=O)[C@H](CC(C)C)NC(=O)[C@H](CC(C)C)NC(=O)[C@H](CC(N)=O)NC1=O)[C@@H](C)CC` [compound 22] (H-GIFSKLAGKKICNLLCSGLKG-NH2; linker 12-16 via X1), the “Minimum Inhibitory Concentration (MIC) A. baumannii” value in series [1] amounted to 64 mg/L. Besides, in series [2], the “Minimum Inhibitory Concentration (MIC) E. coli” value was 32 mg/L. Moreover, the “Minimum Inhibitory Concentration (MIC) K. pneumoniae” value in series [3] is greater than 64 mg/L. For the same compound, in series [4], the “Minimum Inhibitory Concentration (MIC) P. aeruginosa” value was 64 mg/L. Moreover, in series [5], the “Minimum Inhibitory Concentration (MIC) S. aureus” value is greater than 64 mg/L. The IC50 in series [6] and in series [7] was greater than 200 mg/L throughout.
With `CC[C@H](C)[C@H](NC(=O)CN)C(=O)N[C@@H](Cc1ccccc1)C(=O)N[C@@H](CO)C(=O)N[C@@H](CCCCN)C(=O)N[C@@H](CC(C)C)C(=O)N[C@@H](C)C(=O)NCC(=O)N[C@@H](CCCCN)C(=O)N[C@H]1CSCc2ccc(cc2)CSC[C@@H](C(=O)N[C@@H](CC(C)C)C(=O)N[C@H](C(=O)N[C@@H](CO)C(=O)NCC(=O)N[C@@H](CC(C)C)C(=O)N[C@@H](CCCCN)C(=O)NCC(N)=O)[C@@H](C)CC)NC(=O)[C@H](CC(N)=O)NC(=O)[C@H](CCCCN)NC(=O)[C@H]([C@@H](C)CC)NC1=O` [compound 15] (H-GIFSKLAGKCIKNCLISGLKG-NH2; linker 10-14 via pXylylene), the “Minimum Inhibitory Concentration (MIC) A. baumannii” value in series [1] is 16 mg/L. The “Minimum Inhibitory Concentration (MIC) E. coli” value in series [2] was 8 mg/L. In addition, the “Minimum Inhibitory Concentration (MIC) K. pneumoniae” value in series [3] turned out to be 32 mg/L. Moreover, the “Minimum Inhibitory Concentration (MIC) P. aeruginosa” value in series [4] is 32 mg/L. The “Minimum Inhibitory Concentration (MIC) S. aureus” value in series [5] is greater than 64 mg/L. For the same compound, the IC50 was 82 mg/L (≈ 36.4 µM) in series [6] and 88 mg/L (≈ 39.1 µM) in series [7].
`CC[C@H](C)[C@H](NC(=O)CN)C(=O)N[C@@H](Cc1ccccc1)C(=O)N[C@@H](CO)C(=O)N[C@@H](CCCCN)C(=O)N[C@@H](CC(C)C)C(=O)N[C@@H](C)C(=O)NCC(=O)N[C@@H](CCCCN)C(=O)N[C@@H](CCCCN)C(=O)N[C@H](C(=O)N[C@H]1CSCc2cccc(c2)CSC[C@@H](C(=O)N[C@@H](CO)C(=O)NCC(=O)N[C@@H](CC(C)C)C(=O)N[C@@H](CCCCN)C(=O)NCC(N)=O)NC(=O)[C@H](CC(C)C)NC(=O)[C@H](CC(C)C)NC(=O)[C@H](CC(N)=O)NC1=O)[C@@H](C)CC` [compound 20] (H-GIFSKLAGKKICNLLCSGLKG-NH2; linker 12-16 via mXylylene): the “Minimum Inhibitory Concentration (MIC) A. baumannii” value in series [1] was determined as 8 mg/L. Besides, the “Minimum Inhibitory Concentration (MIC) E. coli” value in series [2] came out at 8 mg/L. Also, the “Minimum Inhibitory Concentration (MIC) K. pneumoniae” value in series [3] stood at 16 mg/L. Also, the “Minimum Inhibitory Concentration (MIC) P. aeruginosa” value in series [4] was 16 mg/L. Besides, the “Minimum Inhibitory Concentration (MIC) S. aureus” value in series [5] is 64 mg/L. In addition, the IC50 in series [6] turned out to be 25 mg/L (≈ 11.1 µM); in series [7], 40 mg/L (≈ 17.8 µM).
